In ChEMBL document CHEMBL1201862, “PubChem BioAssay data set” (2004):
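Protocol summary: plate cells (96-well), add compound at 5 concentrations, incubate 48 h, interpolate endpoints linearly. GI50 = concentration required for 50% inhibition of growth.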 Calls of active or inactive are those of the source. Rule as the data show it: active = GI50 up to about 1.1 µM and inactive = higher.

How the values were obtained:
Assay in all cases: growth of human tumour cells (NCI), 48 h
[1] = tested on: LOX IMVI
[2] = tested on: SK-OV-3
[3] = tested on: SK-MEL-5
[4] = tested on: UACC-257
[5] = tested on: A498
[6] = tested on: SW-620
[7] = tested on: NCI-H226
[8] = tested on: T47D
[9] = tested on: K562
[10] = tested on: SF-295
[11] = tested on: SNB-19
[12] = tested on: DU-145
[13] = tested on: NCI-H23
[14] = tested on: NCI-H460
[15] = tested on: MOLT-4
[16] = tested on: UO-31
[17] = tested on: 786-0
[18] = tested on: HCC 2998
[19] = tested on: NCI/ADR-RES
[20] = tested on: SN12C
[21] = tested on: RXF 393
[22] = tested on: UACC-62
[23] = tested on: SNB-75
[24] = tested on: PC-3
[25] = tested on: ACHN
[26] = tested on: HCT-116
[27] = tested on: M14
[28] = tested on: MDA-MB-435
[29] = tested on: Malme-3M
[30] = tested on: MDA-MB-231
[31] = tested on: OVCAR-3
[32] = tested on: HL-60
[33] = tested on: MDA-N
[34] = tested on: MCF7
[35] = tested on: OVCAR-8
[36] = tested on: HCT-15
[37] = tested on: OVCAR-4
[38] = tested on: SK-MEL-2
[39] = tested on: COLO 205
[40] = tested on: NCI-H522
[41] = tested on: EKVX
[42] = tested on: Hs-578T
[43] = tested on: KM12
[44] = tested on: CAKI-1
[45] = tested on: HOP-92
[46] = tested on: SK-MEL-28
[47] = tested on: BT-549
[48] = tested on: SR
[49] = tested on: SF-268
[50] = tested on: HOP-62
[51] = tested on: A549
[52] = tested on: OVCAR-5
[53] = tested on: TK-10
[54] = tested on: CCRF-CEM
[55] = tested on: U-251
[56] = tested on: HT-29
[57] = tested on: IGROV-1

SMILES: c1cncc(CSc2ncnc3[nH]cnc23)c1
- GI50 [1]: > 100 µM (inactive)
- GI50 [2]: > 100 µM (inactive)
- GI50 [3]: > 100 µM (inactive)
- GI50 [4]: > 100 µM (inactive)
- GI50 [5]: > 100 µM (inactive)
- GI50 [6]: > 100 µM (inactive)
- GI50 [7]: > 100 µM (inactive)
- GI50 [8]: > 100 µM (inactive)
- GI50 [9]: > 100 µM (inactive)
- GI50 [10]: > 100 µM (inactive)
- GI50 [11]: > 100 µM (inactive)
- GI50 [12]: > 100 µM (inactive)
- GI50 [13]: > 100 µM (inactive)
- GI50 [14]: > 100 µM (inactive)
- GI50 [15]: > 100 µM (inactive)
- GI50 [16]: > 100 µM (inactive)
- GI50 [17]: > 100 µM (inactive)
- GI50 [18]: > 100 µM (inactive)
- GI50 [19]: > 100 µM (inactive)
- GI50 [20]: > 100 µM (inactive)
- GI50 [21]: > 100 µM (inactive)
- GI50 [22]: > 100 µM (inactive)
- GI50 [23]: > 100 µM (inactive)
- GI50 [24]: > 100 µM (inactive)
- GI50 [25]: > 100 µM (inactive)
- GI50 [26]: > 100 µM (inactive)
- GI50 [27]: > 100 µM (inactive)
- GI50 [28]: > 100 µM (inactive)
- GI50 [29]: > 100 µM (inactive)
- GI50 [30]: > 100 µM (inactive)
- GI50 [31]: > 100 µM (inactive)
- GI50 [32]: > 100 µM (inactive)
- GI50 [33]: > 100 µM (inactive)
- GI50 [34]: > 100 µM (inactive)
- GI50 [35]: > 100 µM (inactive)
- GI50 [36]: > 100 µM
- GI50 [37]: > 100 µM (inactive)
- GI50 [38]: > 100 µM (inactive)
- GI50 [39]: > 100 µM (inactive)
- GI50 [40]: > 100 µM (inactive)
- GI50 [41]: > 100 µM (inactive)
- GI50 [42]: > 100 µM (inactive)
- GI50 [43]: > 100 µM (inactive)
- GI50 [44]: > 100 µM (inactive)
- GI50 [45]: > 100 µM (inactive)
- GI50 [46]: > 100 µM (inactive)
- GI50 [47]: > 100 µM (inactive)
- GI50 [48]: > 100 µM (inactive)
- GI50 [49]: > 100 µM (inactive)
- GI50 [50]: > 100 µM (inactive)
- GI50 [51]: > 100 µM (inactive)
- GI50 [52]: > 100 µM (inactive)
- GI50 [53]: > 100 µM (inactive)
- GI50 [54]: > 100 µM (inactive)
- GI50 [55]: > 100 µM (inactive)
- GI50 [56]: > 100 µM (inactive)
- GI50 [57]: > 100 µM (inactive)
